Data on six compounds can be found in patent US11510899B2, “RTX toxin production inhibitor and composition for treating symptom of vibrio infection by using same” (priority 2018, dated 2022).

The first assay has as its target T1, HlyU (Vibrio vulnificus, UniProt A0A3Q0L222).
T1 sequence (A0A3Q0L222 1-98): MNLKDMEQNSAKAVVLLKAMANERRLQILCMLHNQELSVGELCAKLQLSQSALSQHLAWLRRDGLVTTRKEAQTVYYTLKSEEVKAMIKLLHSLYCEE
In words: Vibrio reporter strain, pKK1305 (PrtxA-lux, activated by HlyU) in wild-type V. vulnificus. In kind it is cell-based. Particulars: Compound Group I; HlyU activity (RLU, DMSO = 100%), 30° C. As for the experimental part: Meanwhile, verification experiments using the Vibrio reporter strain were also conducted so as to exclude false positive results. It was identified that the effect of the compound was not limited only to E. coli using Vibrio vulnificus, each having the reporter plasmid (pZW1608) inhibited by HlyU, which was used for the E. coli reporter strain, and the plasmid (pKK1305) in which the promoter of the rtxA gene activated by HlyU is cloned in front of the bioluminescence operon.
The constructed wild-type Vibrio reporter strain was treated with sample compounds and cultured at 30° C., and cell growth and luminescence were measured in the same manner as the E. coli strain screening (FIG. 3 and FIG. 4).
In order to identify whether or not a specific structure of CM2660 has a significant effect on HlyU inhibition, the effect of HlyU inhibition by the compound CM2660 and derivatives thereof, “Compound Group I” (FIG. 5) was verified. For the purpose, the pKK1305 plasmid prepared in Example 1 was conjugated to the wild-type Vibrio vulnificus, and the Vibrio reporter strain (pKK1305 in wild-type V. vulnificus) thus produced was treated with various concentrations of the derivative compounds.
While culturing at 30° C., the growth of the reporter strain and the degree of bioluminescence thereof were measured in the same manner as in Example 1, and the RLU was calculated. The RLU of the DMSO-treated control group was expressed as 100% HlyU activity. HlyU activity was plotted according to the concentration of the derivative compound, and EC50 (half maximal effective concentration) was calculated using GraphPad Prism 7.0 (GraphPad Software, San Diego, Calif.) (FIG. 6, Table 2).
The term EC50 denotes the concentration giving half of the maximal effect. On to `O=C(Nc1scc2c1c(=O)oc1ccccc12)c1ccccc1` [LJ4451], for which the EC50 is 993 µM. Consider `O=C(CCc1ccccc1)Nc1scc2c1c(=O)oc1ccccc12` [LJ4458], for which the EC50 came to 875 µM.

Staying with this assay, now noted: Compound Group II; HlyU activity (RLU, DMSO = 100%), 30° C.; read-out: EC50.
Regarding `O=C(O)C#Cc1ccc([N+](=O)[O-])cc1` [LJ4526], the EC50 amounted to 140 µM. For the compound `CC(C)(C)OC(=O)CNC(=O)C#Cc1ccc(N)cc1` [LJ4531], the half-maximal effective concentration (EC50) was 118 µM.

With `CC(C)(C)OC(=O)CNC(=O)C#Cc1cccnc1` [LJ4532], the EC50 amounted to 52.4 µM. As to `O=C(O)CNC(=O)C#Cc1ccccc1` [LJ4533], the EC50 amounted to 1140 µM.
